According to patent publication US20120283175A1, “ANTIBACTERIAL COMPOSITIONS” (Achaogen, Inc., priority 2009, published 2012):

Tests used:
[1] = tested on: Klebsiella pneumoniae (ATCC 43816); format: in vivo
Protocol: Vancomycin and LpxCi-5 were dissolved in 30% HPβCD (2-hydroxypropyl-β-cyclodextrin). Test substances were each administered subcutaneously (SC) singly or in combination to test animals at 2 hours and 14 hours after bacterial inoculation then bid daily for a total of 1, 2, 3 or 7 day(s). The dosing volume was 5 mL/kg.
Groups of 5 or 10 male specific-pathogen-free CD-1 (Crl.) mice weighing 24±2 g were used. Animals were immunosuppressed by two or three intraperitoneal injections of cyclophosphamide, the first at 150 mg/kg 4 days before infection (day −4) and the second or third at 100 mg/kg 1 day before or 3 days after infection (day −1 or +3). On day 0, animals were inoculated intramuscularly (0.1 mL/thigh) into the right thigh with a specific number (1.35×10^7 CFU/mouse) of Klebsiella pneumoniae (ATCC 43816). Vehicle and test substances (singly or in combination) were each administered subcutaneously 2 hours and 14 hours after inoculation then bid for a total of 1, 2, 3 or 7 consecutive day(s). Groups at 24, 48, 72 hours and day 8 hours after treatment as the designated time of harvest, muscle of the right thigh was harvested from each of the survival test animals. An additional group with no treatment, at 2 hours after inoculation, the muscle of the right thigh was harvested and viable CFU on agar plates with or without drug were quantified by standard methods. Animals in groups designated for Day 8 harvest are 10 mice and daily tally of survivors were kept until harvest and recorded. A non-infected group was just treated with LpxCi-5 and kept out to Day 8 and then harvested. The removed muscle tissues were then homogenized in 3˜4 mL of PBS, pH 7.4, with a ceramic mortar. Homogenates of 0.1 mL were used for serial 10-fold dilutions and plated on Muller-Hinton Broth in 1.5% Bacto agar and plated in parallel with drug plates for CFU determination. The original inoculum was adjusted to 2×10^8 CFU/0.1 mL and then plated onto the 3 different drug plates of LpxCi-5 for CFU count.
The immunity of animals treated with vehicle or vancomycin alone was suppressed by two intraperitoneal injections of cyclophosphamide, the first was at 150 mg/kg 4 days before infection (day −4) and the second was at 100 mg/kg 1 day before infection (day −1). On day 0, test compound and vehicle were each administered subcutaneously at 2 and 14 hrs after animals were inoculated intramuscularly (0.1 mL/thigh) with 1.35×10^7 CFU/mouse of Klebsiella pneumoniae (ATCC 43816).
(§1) The immunity of animals treated with LpxCi-5 alone was suppressed by two or three intraperitoneal injections of cyclophosphamide, the first was at 150 mg/kg 4 days before infection (day −4); the second and the third was at 100 mg/kg 1 day before and three days after infection (day −1 and day +3). On day 0, test compound were each administered subcutaneously bid at 2 and 14 hrs after animals were inoculated intramuscularly (0.1 mL/thigh) with 1.35×10^7 CFU/mouse of Klebsiella pneumoniae (ATCC 43816) for one, two, three or seven consecutive days. At 24, 48, 72 hours or at day 8 after treatment, muscle of the right thigh was harvested from each of the test animals for CFU determination in normal and drug plates.
as §1, with “both vancomycin and the LpxC inhibitor, LpxCi-5,” for “LpxCi-5 alone”, “compounds in combination” for “compound”, “days.” for “days. At 24, 48, 72 hours or at day 8 after treatment, muscle of the right thigh was harvested from each of the test animals for CFU determination in normal and drug plates.”

[2] = tested on: P. aeruginosa (ATCC27853); details: P. aeruginosa (ATCC27853); summary

For CN[C@H](CC(C)C)C(=O)N[C@H]1C(=O)N[C@@H](CC(N)=O)C(=O)N[C@H]2C(=O)N[C@H]3C(=O)N[C@H](C(=O)N[C@H](C(=O)O)c4cc(O)cc(O)c4-c4cc3ccc4O)[C@H](O)c3ccc(c(Cl)c3)Oc3cc2cc(c3O[C@@H]2O[C@H](CO)[C@@H](O)[C@H](O)[C@H]2O[C@H]2C[C@](C)(N)[C@H](O)[C@H](C)O2)Oc2ccc(cc2Cl)[C@H]1O [Vancomycin, vancomycin], the “Mean CFU/g thigh muscle (SEM)” value ([1]; 24 hr, normal plates, SC bid × 1, Vancomycin 25 mg/kg, LpxC-i 35 mg/kg) was “all animals died”, the “animals for which the inoculum was lethal at 24 hours” value ([1]; Vancomycin only treatment group) was 100% and the “time within which all mice died” value ([1]; vancomycin alone, SC at 2 and 14 hrs after inoculation) was no more than 24 h. The “in vivo synergy with LpxC inhibitors” value [2] was “surprising in vivo synergy”.
